Laboratory results published in ChEMBL document CHEMBL6153166, “Innovative Protein Degraders for Targeted Cancer and Viral Therapy” (ACS Med Chem Lett, 2025).

What follows are molecules tested against Sequestosome-1 (Homo sapiens, UniProt Q13501) (assay: Inhibition of biotin-labeled Halo/His-tagged p62 (unknown origin) incubated for 30 mins by AlphaLISA competition assay).
Sequestosome-1, sequence (Q13501 whole entry): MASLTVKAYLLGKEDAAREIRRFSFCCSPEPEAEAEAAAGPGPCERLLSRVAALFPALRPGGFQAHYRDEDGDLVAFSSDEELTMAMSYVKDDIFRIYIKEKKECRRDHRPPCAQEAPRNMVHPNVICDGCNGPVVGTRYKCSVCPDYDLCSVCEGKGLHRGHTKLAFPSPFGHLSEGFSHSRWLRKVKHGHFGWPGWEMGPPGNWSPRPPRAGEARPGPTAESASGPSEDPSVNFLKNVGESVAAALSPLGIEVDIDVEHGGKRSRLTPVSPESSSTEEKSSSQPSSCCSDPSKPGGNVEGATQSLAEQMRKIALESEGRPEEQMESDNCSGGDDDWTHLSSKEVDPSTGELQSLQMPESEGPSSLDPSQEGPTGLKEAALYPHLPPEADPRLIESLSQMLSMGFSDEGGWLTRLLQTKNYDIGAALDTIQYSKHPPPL
In the case of CCc1cc2c(cc1N1CCN(C(=O)CCCN3C[C@H](NC(=O)[C@@H](N)CCCc4cncnc4N)C(C)(C)C3)CC1)C(C)(C)C1Nc3cc(C#N)ccc3C1C2=O (stereo partly specified), the IC50 is reported as ≤ 1.5 µM. CCc1cc2c(cc1N1CCN(C(=O)CCCN3CC[C@@H](NC(=O)[C@@H](N)CCCn4ccnc4N)C3)CC1)C(C)(C)C1Nc3cc(C#N)ccc3C1C2=O (stereo partly specified) was tested, and the IC50 was ≤ 1.5 µM. CCc1cc2c(cc1N1CCN(C(=O)CCCN3C[C@H](NC(=O)[C@@H](N)CCCn4ccnc4N)C4(CC4)C3)CC1)C(C)(C)C1Nc3cc(C#N)ccc3C1C2=O (stereo partly specified) was tested, and the IC50 was ≤ 1.5 µM. For CCc1cc2c(cc1N1CCN(C(=O)CCCN3C[C@H](NC(=O)[C@@H](N)CCCn4ccnc4N)C(C)(C)C3)CC1)C(C)(C)C1Nc3cc(C#N)ccc3C1C2=O (stereo partly specified), the IC50 was ≤ 1.5 µM. CCc1cc2c(cc1N1CCN(C(=O)CCCN3C[C@H](NC(=O)[C@@H](N)CCCc4cccnc4N)C(C)(C)C3)CC1)C(C)(C)C1Nc3cc(C#N)ccc3C1C2=O (stereo partly specified) was tested, and the IC50 was ≤ 1.5 µM. CCc1cc2c(cc1N1CCN(C(=O)CCCN3CCC(C)(C)C(NC(=O)[C@@H](N)CCCn4ccnc4N)C3)CC1)C(C)(C)C1Nc3cc(C#N)ccc3C1C2=O (stereo partly specified) was tested, and the IC50 was ≤ 1.5 µM.
